Source: patent US8390681B1, “Computer assisted semen analyzer to analyze digital video clips received from a remote location” (LifeCell Dx, Inc., priority 2008, dated 2013)

What was measured:
[1] = test system: fertilization capacity; test: Fertilization capacity, concentration dependence of cannabinoids; settings: higher concentrations
[2] = test system: mouse sperm; test: Mouse sperm pre-treated with drug, then artificial insemination into the mouse uterus; fertilization and embryo development scored; type: in vivo
Text: Studies show the cannabinoid implications in vivo in the mouse model. In separate experiments, mouse sperm are pre-treated with Meth-anandamide or AM-1346 and then the mouse sperm are inseminated into the mouse uterus (artificial insemination).
Each egg could be scored as 1-cell, 2-cell, 3-4 cell, 5-8 cell, morula, blastocysts or degenerated. Brief exposure of the sperm to the drug before insemination produces significant inhibition of 5 parameters. Compared to Control, the treated animals ovulate fewer ova (p<0.01, t-test). […] By Day 2, treatment produces a lower % of 2-cell eggs—again, fewer eggs are cleaving. […] The drug severely impairs fertilization and embryo development.

[3] = test system: human sperm; test: Human sperm vigorous swimming (Hyperactivation, computer-tracking); type: cell-based
Text: Fertilization assays include changes in human sperm vigorous swimming (Hyperactivation, computer-tracking), changes in % moving, and changes in the ability of drug-treated sperm to complete the acrosome reaction, and ability to bind to the human egg cover (Hemizona assay).

[4] = sperm pre-treated with 100 nM, Day 1
[5] = sperm pre-treated with 100 nM, Day 3

Row | SMILES | effect on fertilization capacity [1] | Number embryos per female ([2]; sperm pre-treated with 100 nM before insemination) | % ova as 1-cell on Day 1 [2, 4] [%] | Number of 2-cells on Day 1 [2, 4] | % embryos >2-cell on Day 3 [2, 5] [%] | % embryos degenerated on Day 3 [2, 5] [%] | vigorous swimming of human sperm [3]
1 | CCCCC/C=C\C/C=C\C/C=C\C/C=C\CCCC(=O)N[C@H](C)CO [Methanandamide, R-methanandamide] | biphasic effect: Higher concentrations produce inhibition | 4.3 ± 0.7 | 91.3 | 0.6 ± 0.2 | 25.0 | 44.2 | 
2 | CCCCC/C=C\C/C=C\C/C=C\C/C=C\CCCC(=O)NCc1ccoc1 [UCM] |  |  |  |  |  |  | blocks
3 | CCCCC/C=C\C/C=C\C/C=C\C/C=C\CCCC(=O)NCCO [Anandamide, arachidonoyl-ethanolamide] | trends towards reduced fertilization capacity |  |  |  |  |  | 
